# Source: patent US20250041408A1, “SMALL MOLECULE IMMUNOPOTENTIATOR CONJUGATES OF NFKB ACTIVATORS AS ADJUVANTS WITH ENHANCED EFFICACY AND REDUCED TOXICITY” (THE UNIVERSITY OF CHICAGO, priority 2021, published 2025)
# Key:
# [1] = Systemic cytokines in CT26 tumor model after intratumoral injection; format: in vivo, Balb/c mice; settings: 2 h after intratumoral injection
# Experimental: FIGS. 17A-C (A) Outline of in vivo tumor model experiment. (B) Systemic IL-6 levels measured in the serum 2 h after intertumoral injection of compounds. (C) Systemic TNF-α levels measured in the serum 2 h after intertumoral injection of compounds.
# 0.2×10^6 CT-26 cells were injected subcutaneously into the flank of 6-week-old Balb/c mice (n=10 per group) in 100 μL of PBS. The tumor size was monitored on alternating days. Tumor volumes were measured using the equation V=1/2×L×W×W. When the tumors reached a size of approximately 75 mm3 (day 11), treatment was started. Various formulations (20 nmols of each agonist or PBS) were injected peritumorally every 4 days […]. Mice were euthanized when the tumors reached 20 mm in any linear dimension. Five mice for each group were used for blood analysis. Blood was collected two days post the first injection for hematological toxicity analysis and two hours post the second injection for systemic cytokine analysis.
# After 11 days, the tumors were established and intratumoral injections were administered with the SMIP adjuvant and adjuvant dimers. At 2 h and 24 h after these injections, serum and blood were collected to examine systemic cytokines in the serum and perform a hematological analysis on the blood to better quantify adjuvant toxicity. Similar to the OVA vaccination model, the dimer adjuvants induced baseline levels of IL-6 and TNF-α as measured in the serum.
# [2] = with CPG in vaccine formulations; vaccine protective effects maintained; cited from earlier work
# OVA = test: Serum anti-OVA IgG titers after OVA immunization (ELISA); format: in vivo, C57Bl/6 mice; settings: immunized days 0 and 14; ELISA at 3 weeks
# BMDMs [3] = test: TNF-α in supernatant of BMDMs by ELISA; format: cell-based, C57Bl/6 mice; settings: treated BMDMs; compared with pTLR7/8 and mTLR7/8
# BMDMs [4] = test: Flow cytometry of costimulatory molecules CD40 and CD86 on BMDMs; format: cell-based, C57Bl/6 mice; settings: 18 h at 37° C
# Experimental: FIGS. 2A-B show immune activation as measured by costimulatory molecules CD40 (FIG. 2A) and CD86 (FIG. 2B) on BMDMs. Cells were incubated with each compound for 18 h at 37° C. Error bars represent SD. Samples were run in triplicate. […] Each experiment was repeated thrice with similar results.
# Flow Cytometry for Cell Surface Marker Upregulation: BMDCs were plated in untreated 12-well plates at 1×10^6 cells/mL and incubated with agonists in culture media for 18 h at 37° C. with 5% CO2. The cells were released from the plate by pipetting vigorously and centrifuged at 2500 RPM at 4° C. for 10 min. The cell pellet was resuspended in cold FACS buffer (PBS, 10% FBS, and 0.1% sodium azide) buffer (300 μL) and incubated with CD16/32 FcR blocking antibodies (1.0 μg/1×10^6 cells) on ice for 15 min. The cell suspension was pelleted, and the supernatant was removed. Next, the cell pellet was resuspended in cold FACS buffer (100 μL) and stained for CD86 and CD40 in the dark for 30 min. The samples were then washed twice with 300 μL FACS buffer. The pelleted cells were resuspended in cold FACS buffer (200 μL) and kept on ice until being loaded onto the flow cytometer for analysis.
# [5] = system: NF-κB in RAW-Blue 264.7 macrophage cells; test: RAW-Blue 264.7 macrophage NF-κB assay (polymeric immunomodulator); format: cell-based; settings: incubated 18 h at 37° C; QUANTIBlue absorbance 620 nm
# Experimental: Cells were incubated with each compound for 18 h at 37° C. Supernatant was removed and incubated with QUANTIBlue for 1 h, and the absorbance at 620 nm was measured. Error bars represent standard deviation (SD). Samples were run in triplicate.
# RAW264.7 Macrophage (RAW-Blue) NF-κB assay: RAW-Blue cells (passage 5-15) were plated in a 96 well plate at a density of 100,000 cells/well in 180 μL DMEM containing 10% heat-inactivated FBS (HI-FBS) and selective antibiotics. The cells were treated with agonists for […] at 37° C. and 5% CO2. NF-κB activity was measured by a QUANTI-Blue (InvivoGen) assay and the absorbance was measured at 620 nm using a Multiskan FC plate reader (Thermo Scientific).
# cells from the dLNs = test: Cytokines from draining lymph node cells re-stimulated with OVA (CBA); format: in vivo, C57Bl/6 mice; settings: re-stimulated with OVA for 48 hours
structure (smiles),measurement,setting,value
CCCCCCCCCCCCCCCCCC(=O)NCCCCOn1c(CCCC)nc2c(N)nc3ccccc3c21 [Compound 3M-052],systemic IL-6 levels in serum,[1],comparable
same,systemic TNF-α levels in serum,[1],comparable
"CCOCc1nc2c(N)nc3ccccc3c2n1CC(C)(C)O [Compound R848, resiquimod]",systemic IL-6 levels in serum,[1],high levels
same,systemic TNF-α levels in serum,[1],high levels
COc1cc(CNC(=O)CCCC/C=C/C(C)C)ccc1O [capsaicin],pro-inflammatory systemic IL-6 and TNF-α levels,[2],reduce
C=CCc1ccc(O)c(-c2ccc(O)c(CC=C)c2)c1 [honokiol],pro-inflammatory systemic IL-6 and TNF-α levels,[2],reduce
CCCCc1nc2c(N)nc3ccccc3c2n1Cc1ccc(CNC(=O)CCCCCNC(=O)CCC(NC(=O)CNC(=O)C(CCC(=O)NCCCCCC(=O)NCc2ccc(Cn3c(CCCC)nc4c(N)nc5ccccc5c43)cc2)NC(=O)CNC(=O)C(CCC(=O)NCCCCCC(=O)NCc2ccc(Cn3c(CCCC)nc4c(N)nc5ccccc5c43)cc2)NC(=O)CNC(=O)C(CCC(=O)NCCCCCC(=O)NCc2ccc(Cn3c(CCCC)nc4c(N)nc5ccccc5c43)cc2)NC(=O)CNC(=O)C(CCC(=O)NCCCCCC(=O)NCc2ccc(Cn3c(CCCC)nc4c(N)nc5ccccc5c43)cc2)NC(=O)CCC(=O)N2Cc3ccccc3-c3nnn(CCCCCC(=O)NC(Cc4ccc(O)c(O)c4)C(=O)NC(Cc4ccc(O)c(O)c4)C(=O)NC(Cc4ccc(O)c(O)c4)C(=O)NC(Cc4ccc(O)c(O)c4)C(N)=O)c3-c3ccccc32)C(N)=O)cc1 (centres unmarked) [pTLR7/8_mod],serum titers of anti-OVA antibodies,OVA,Highest
same,TNF-α concentration in supernatant,BMDMs [3],smallest increase
same,levels of CD40,BMDMs [4],greatest increase
same,levels of CD86,BMDMs [4],greatest increase
same,NF-κB levels,[5],increased
same,amount of IL-6 (FIG. 6B) produced by dLN cells,cells from the dLNs,highest levels
same,amount of IL-23 (FIG. 6A) produced by dLN cells,cells from the dLNs,highest levels
same,amount of TNF-α (FIG. 6C) produced by dLN cells,cells from the dLNs,highest levels
